By IC50 is commonly meant the concentration needed to halve the response being measured.

The text below walks through data of US9844542B2, “Substituted imidazopyridine and triazolopyridine compounds as negative allosteric modulators of mGluR5” (Vanderbilt University, priority 2013, dated 2017).

The experiment has as its target T1, rat mGluR5 (Rattus norvegicus, UniProt P31424).
T1 construct: expressed in transfected cells
Description: mGluR5 calcium mobilization assay (FDSS, Fluo-4) in HEK 293A cells stably expressing rat mGluR5. It is filed as cell-based. The settings on record: HEK cells transfected with rat mGluR5; antagonism of glutamate EC80 response; ± = standard error of at least three experiments. On the procedure:
Human embryonic kidney (HEK) cells transfected with rat or human mGluR5 were plated in clear bottom assay plates for assay in a Functional Drug Screening System (FDSS). The cells were loaded with a Ca^2+-sensitive fluorescent dye (e.g., Fluo-4), and the plates were washed and placed in the FDSS instrument. Test compound was applied to cells 3 seconds after baseline readings were taken. Cells were incubated with the test compounds for 140 seconds and then stimulated with an EC20 concentration of an mGluR5 agonist (e.g., glutamate, 3,5-dihydroxyphenylglycine, or quisqualate); 60-80 seconds later an EC80 concentration of agonist was added and readings taken for an additional 40 seconds. Data were collected at 1 Hz. […] Concentration response curves were generated using a four parameter logistical equation.
The above described assay was operated in two modes. In the first mode (utilizing a triple add protocol), a range of concentrations of the present compounds were added to cells, followed by two single fixed concentrations of agonist (EC20 followed by EC80). If a compound acted as a potentiator, an EC50 value for potentiation of the EC20 response and a maximum extent of potentiation by the compound at this concentration of agonist was determined by non-linear curve fitting. If a compound acted as an antagonist, an IC50 value for antagonism of the EC80 response and a maximum extent of antagonism by the compound at this concentration of agonist was determined by non-linear curve fitting. In the second mode (utilizing a double add protocol), several fixed concentrations of the present compounds were added to various wells on a plate, followed by a range of concentrations of agonist for each concentration of present compound; the EC50 values for the agonist at each concentration of compound were determined by nonlinear curve fitting. A decrease in the EC50 value of the agonist with increasing concentrations of the present compounds (a leftward shift of the agonist concentration-response curve) is an indication of the degree of mGluR5 positive allosteric modulation at a given concentration of the present compound. An increase in the EC50 value of the agonist with increasing concentrations of the present compounds (a rightward shift of the agonist concentration response curve) is an indication of the degree of mGluR5 antagonism at a given concentration of the present compound. The second mode also indicates whether the present compounds also affect the maximum response to mGluR5 to agonists.
The mGluR5 activity was determined using the calcium mobilization assays in human embryonic kidney cells as described herein below, wherein the human embryonic kidney cells were transfected with rat mGluR5. The mGluR5 activity data for some compounds are shown as the average of at least three experiments with the standard error in these cases. If no error is indicated for the mGluR5 activity, the values given represent the results from a single experiment or the average of two experiments. The compounds in Table 1 were synthesized with methods identical or analogous to those shown herein. The requisite starting materials were commercially available, described in the literature, or readily synthesized by one skilled in the art of organic synthesis.
GluMax is the amplitude of response in the presence of 30 μM test compound as a percentage of maximal response (100 μM glutamate). Partial antagonists display concentration-response curves (CRCs) that plateau above 10%.
The preparation of rat mGluR5 stable cell-lines is as previously described (e.g. see Romano et al. J Biol. Chem. 1996 Nov. 8; 271(45):28612-6).
On the technique in general: Calcium flux is commonly read through the fluorescence of an indicator in the cells.

Several values for one entry are separate records, joined by “and”; a condition that tells them apart may be missing. Equal entries are not always repeated.

T1 sequence (P31424 21-1171 isoform P31424-2 limits assumed): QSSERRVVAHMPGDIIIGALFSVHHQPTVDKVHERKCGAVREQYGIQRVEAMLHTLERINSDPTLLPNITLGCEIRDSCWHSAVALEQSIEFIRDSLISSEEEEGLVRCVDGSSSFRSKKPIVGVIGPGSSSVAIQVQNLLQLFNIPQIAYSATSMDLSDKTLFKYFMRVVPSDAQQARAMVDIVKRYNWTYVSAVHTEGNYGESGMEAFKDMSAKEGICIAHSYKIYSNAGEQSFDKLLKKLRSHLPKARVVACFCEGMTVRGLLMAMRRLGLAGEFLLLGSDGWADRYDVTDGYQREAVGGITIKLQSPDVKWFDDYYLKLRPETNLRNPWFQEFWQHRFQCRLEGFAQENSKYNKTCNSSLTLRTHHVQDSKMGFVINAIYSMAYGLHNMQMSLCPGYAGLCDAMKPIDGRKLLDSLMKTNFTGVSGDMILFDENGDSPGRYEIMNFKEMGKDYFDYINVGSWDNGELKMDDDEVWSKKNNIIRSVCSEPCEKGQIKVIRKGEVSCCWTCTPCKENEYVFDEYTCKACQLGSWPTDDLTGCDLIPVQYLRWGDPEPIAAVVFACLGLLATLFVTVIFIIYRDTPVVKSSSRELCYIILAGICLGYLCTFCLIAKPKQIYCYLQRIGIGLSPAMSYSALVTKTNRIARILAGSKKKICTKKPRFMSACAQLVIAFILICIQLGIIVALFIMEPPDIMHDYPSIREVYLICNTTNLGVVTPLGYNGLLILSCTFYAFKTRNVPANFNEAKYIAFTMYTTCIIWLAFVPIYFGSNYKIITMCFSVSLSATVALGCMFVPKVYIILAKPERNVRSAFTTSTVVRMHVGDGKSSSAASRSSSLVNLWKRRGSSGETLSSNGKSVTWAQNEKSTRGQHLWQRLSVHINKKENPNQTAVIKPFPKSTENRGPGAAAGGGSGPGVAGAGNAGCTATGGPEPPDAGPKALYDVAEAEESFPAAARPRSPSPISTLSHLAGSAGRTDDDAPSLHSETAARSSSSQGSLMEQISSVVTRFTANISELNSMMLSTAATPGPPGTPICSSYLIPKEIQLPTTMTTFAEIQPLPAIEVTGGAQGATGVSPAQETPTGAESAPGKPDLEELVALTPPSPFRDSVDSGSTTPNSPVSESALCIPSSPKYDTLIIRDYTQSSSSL

Take `Cc1cccc(NC(=O)c2cc(Oc3cncc(Cl)c3)cn3cnnc23)n1`: the IC50 was 695 nM. Turning to `Cc1csc(NC(=O)c2cc(Oc3cncc(F)c3)cn3ncnc23)n1`, the half-inhibitory concentration (IC50) stood at 49 nM. With `COc1cccc(NC(=O)c2cc(Oc3cnc(C)nc3)cn3cnnc23)n1`, the IC50 was more than 10000 nM. The figure for `Cc1csc(NC(=O)c2cc(Oc3cnc(C)nc3)cn3ccnc23)n1` is 1090 nM. For `Cc1cccc(NC(=O)c2cc(Oc3cnc(C)nc3)cn3ccnc23)n1` the value was 3620 nM.

Turning to `Cc1ncc(Oc2cc(C(=O)Nc3ccccn3)c3nncn3c2)cn1`, the IC50 was 9410 nM. Consider `O=C(Nc1cccc(F)n1)c1cc(Oc2cncnc2)cn2ncnc12`, for which the IC50 amounted to 117 nM. The figure for `CCc1cccc(NC(=O)c2cc(Oc3cncc(C)c3)cn3ncnc23)n1` is 483 nM. For the molecule `O=C(Nc1ccc(F)cn1)c1cc(Oc2cncnc2)cn2ncnc12` [drawing 195], the IC50 is 100 nM and 75 nM.

For `O=C(Nc1cccc(F)n1)c1cc(Oc2cncnc2)cn2cnnc12`, the IC50 stood at 232 nM. On to `CCc1cccc(NC(=O)c2cc(Oc3cncc(F)c3)cn3ccnc23)n1`, for which the IC50 was 248 nM.

For the molecule `COc1ccc(NC(=O)c2cc(Oc3cncc(F)c3)cn3ncnc23)nc1`, the IC50 came to 68 nM. `COc1cncc(Oc2cc(C(=O)Nc3nc(C)cs3)c3ncnn3c2)c1`: the IC50 amounted to 139 nM. For `[2H]c1nc(NC(=O)c2cc(Oc3cncc(Cl)c3)cn3ncnc23)c([2H])c([2H])c1[2H]`, the IC50 turned out to be 43 nM. For `Cc1ccc(NC(=O)c2cc(Oc3cncc(F)c3)cn3nc(C)nc23)nc1`, the IC50 is 468 nM. On to `O=C(Nc1ccc(F)cn1)c1cc(Oc2cncc(Cl)c2)cn2cnnc12`, for which the half-maximal inhibitory concentration (IC50) amounted to 285 nM. Take `O=C(Nc1ccccn1)c1cc(Oc2cncc(Cl)c2)cn2cnnc12`: the IC50 is 176 nM. Take `O=C(Nc1ccc(F)cn1)c1cc(Oc2cncc(F)c2)cn2ncnc12` [drawing 179]: the IC50 was 23 nM and 25 nM. Turning to `Cc1csc(NC(=O)c2cc(Oc3cc(F)cnc3F)cn3ncnc23)n1`, the IC50 came to 110 nM.

Consider `Cc1csc(NC(=O)c2cc(Oc3cncc(C#N)c3)cn3ncnc23)n1`, for which the IC50 came out at 193 nM. On to `COc1cncc(Oc2cc(C(=O)Nc3cccc(OC)n3)c3ncnn3c2)c1` [drawing 289], for which the IC50 came out at 416 nM. The figure for `O=C(Nc1cccc(F)n1)c1cc(Oc2cncc(F)c2)cn2ccnc12` is 42 nM; for `O=C(Nc1ccccn1)c1cc(Oc2cncc(F)c2)cn2ncnc12` it is 25 nM. In the case of `Cc1csc(NC(=O)c2cc(Oc3cncc(C#N)c3)cn3cnnc23)n1`, the IC50 came out at 1210 nM. Turning to `COc1cncc(Oc2cc(C(=O)Nc3cccc(F)n3)c3nncn3c2)c1`, the IC50 was 4130 nM.

Regarding `Cc1ccc(NC(=O)c2cc(Oc3cncc(F)c3)cn3cnnc23)nc1`, the IC50 came to 77 nM.

`Cc1csc(NC(=O)c2cc(Oc3cncc(F)c3F)cn3ncnc23)n1`: the IC50 turned out to be 83 nM.

`COc1ccc(NC(=O)c2cc(Oc3cncc(OC)c3)cn3ccnc23)nc1`: the IC50 was 85 nM. With `Cc1cccc(NC(=O)c2cc(Oc3cncc(F)c3)cn3nc(C)nc23)n1`, the IC50 was found to be 199 nM. The figure for `O=C(Nc1cccc(F)n1)c1cc(Oc2cccnc2)cn2ncnc12` is 32 nM.

For `COc1ccc(NC(=O)c2cc(Oc3cncc(F)c3)cn3cnnc23)nc1`, the IC50 was found to be 82 nM.

For `CCc1cccc(NC(=O)c2cc(Oc3cccnc3)cn3ncnc23)n1`, the IC50 was found to be 114 nM. The figure for `Cc1ncc(Oc2cc(C(=O)Nc3ccc(F)cn3)c3nccn3c2)cn1` is 3710 nM; for `Cc1nc(NC(=O)c2cc(Oc3cncc(F)c3)cn3ncnc23)ccc1F` it is 92 nM; for `COc1cncc(Oc2cc(C(=O)Nc3cccc(C)n3)c3nccn3c2)c1` it is 80 nM. `Cc1cccc(NC(=O)c2cc(Oc3cncnc3)cn3ncnc23)n1`: the IC50 came to 312 nM. For `[2H]c1nc(NC(=O)c2cc(Oc3cncc(OC)c3)cn3ncnc23)c([2H])c([2H])c1[2H]` the value was 104 nM; for `Cc1csc(NC(=O)c2cc(Oc3cnc(F)c(F)c3)cn3ncnc23)n1`, 119 nM.

In the case of `O=C(Nc1ccccn1)c1cc(Oc2cncc(F)c2F)cn2ncnc12`, the IC50 stood at 36 nM. Turning to `Cc1ccc(NC(=O)c2cc(Oc3cncc(F)c3)cn3c(C)nnc23)nc1`, the IC50 came out at 1310 nM. On to `Cc1ccc(NC(=O)c2cc(Oc3cncnc3)cn3ncnc23)nc1`, for which the IC50 was 138 nM. Consider `Cc1nc(NC(=O)c2cc(Oc3cncc(F)c3)cn3cnnc23)ccc1F`, for which the IC50 was 164 nM.

For the molecule `COc1cncc(Oc2cc(C(=O)Nc3cccc(C)n3)c3nncn3c2)c1`, the IC50 came out at 2150 nM. As to `Cc1ncc(Oc2cc(C(=O)Nc3cccc(F)n3)c3nncn3c2)cn1`, the IC50 is more than 10000 nM. Take `COc1ccc(NC(=O)c2cc(Oc3cccnc3)cn3ncnc23)nc1`: the IC50 was 142 nM. For the molecule `COc1ccc(NC(=O)c2cc(Oc3cncc(OC)c3)cn3cnnc23)nc1`, the half-inhibitory concentration (IC50) was determined as 3970 nM. On to `O=C(Nc1ccc(F)cn1)c1cc(Oc2cncc(Cl)c2)cn2ncnc12`, for which the IC50 stood at 39 nM. In the case of `Cc1nc2c(C(=O)Nc3ccc(F)c(C)n3)cc(Oc3cncc(F)c3)cn2n1`, the IC50 was found to be 846 nM. Turning to `Cc1csc(NC(=O)c2cc(Oc3cncc(Cl)c3)cn3cnnc23)n1`, the IC50 was 666 nM.

With `COc1ccc(NC(=O)c2cc(Oc3cncc(Cl)c3)cn3cnnc23)nc1`, the IC50 stood at 624 nM.

As to `Cc1csc(NC(=O)c2cc(Oc3cncc(F)c3)cn3c(C)nnc23)n1`, the IC50 stood at 426 nM. Turning to `COc1cccc(NC(=O)c2cc(Oc3cncnc3)cn3cnnc23)n1`, the IC50 stood at 162 nM. With `COc1cncc(Oc2cc(C(=O)Nc3ccc(F)c(C)n3)c3ncnn3c2)c1`, the IC50 came out at 1070 nM. Consider `O=C(Nc1ccc(F)cn1)c1cc(Oc2cncc(OC(F)F)c2)cn2ncnc12`, for which the IC50 stood at 127 nM.

For `Cc1nc2c(C(=O)Nc3cccc(F)n3)cc(Oc3cncc(F)c3)cn2n1`, the IC50 was determined as 410 nM. Consider `Cc1nc(NC(=O)c2cc(Oc3cncc(Cl)c3)cn3ncnc23)ccc1F`, for which the IC50 was 380 nM. Take `O=C(Nc1cccc(F)n1)c1cc(Oc2cncc(Cl)c2)cn2cnnc12`: the IC50 was determined as 414 nM. Take `COc1cccc(NC(=O)c2cc(Oc3cccnc3)cn3ncnc23)n1`: the IC50 was found to be 40 nM. For the molecule `[2H]c1nc(NC(=O)c2cc(Oc3cncnc3)cn3cnnc23)c([2H])c([2H])c1[2H]`, the IC50 is 469 nM.

Regarding `Cc1cncc(Oc2cc(C(=O)Nc3nc(C)cs3)c3ncnn3c2)c1`, the IC50 turned out to be 128 nM. In the case of `Cc1cccc(NC(=O)c2cc(Oc3cncc(Cl)c3)cn3ncnc23)n1`, the IC50 was found to be 130 nM. Consider `O=C(Nc1cc(F)ccn1)c1cc(Oc2cncc(F)c2)cn2cnnc12`, for which the IC50 amounted to 1170 nM. Turning to `Cc1cncc(Oc2cc(C(=O)Nc3cccc(C)n3)c3ncnn3c2)c1`, the IC50 is 160 nM. For `Cc1ncc(Oc2cc(C(=O)Nc3ccccn3)c3nccn3c2)cn1` the value was 3310 nM; for `O=C(Nc1ccccn1)c1cc(Oc2cncc(Cl)c2)cn2ncnc12`, 32 nM. The figure for `CCc1cccc(NC(=O)c2cc(Oc3cncnc3)cn3ncnc23)n1` is 306 nM. For `COc1cccc(NC(=O)c2cc(Oc3cncc(Cl)c3)cn3cnnc23)n1`, the IC50 turned out to be 1360 nM. The figure for `CCc1cccc(NC(=O)c2cc(Oc3cncc(OC)c3)cn3cnnc23)n1` [drawing 282] is 1420 nM. For the molecule `O=C(Nc1ccccn1)c1cc(Oc2cnc(F)c(F)c2)cn2ncnc12`, the IC50 came to 52 nM.

For the molecule `[2H]c1nc(NC(=O)c2cc(Oc3cncc(F)c3)cn3ccnc23)c([2H])c([2H])c1[2H]`, the IC50 was determined as 15 nM. With `O=C(Nc1ccc(F)cn1)c1cc(Oc2cc(F)cnc2F)cn2ncnc12`, the IC50 was 138 nM. Turning to `Cc1nc2c(C(=O)Nc3ccc(F)cn3)cc(Oc3cncc(F)c3)cn2n1`, the IC50 is 310 nM. In the case of `Cc1ccc(NC(=O)c2cc(Oc3cncc(C)c3)cn3ncnc23)nc1`, the IC50 came out at 267 nM. With `N#Cc1cncc(Oc2cc(C(=O)Nc3ccc(F)cn3)c3nccn3c2)c1`, the IC50 was 51 nM. The figure for `Cc1ncc(Oc2cc(C(=O)Nc3ccc(F)c(C)n3)c3nncn3c2)cn1` is more than 10000 nM.
